Measured values: ChEMBL document CHEMBL4419173, “Small-molecule inhibitors targeting g-protein-coupled rho guanine nucleotide exchange factors” (2014)
The source made the active and inactive calls. The rule behind the calls is not given here.

Legend:
MCF7 = assay: Inhibition of cell migration of human MCF7 cells at 10 to 50 uM; type: functional, cell-based
Mus musculus [1] = species: Mus musculus; assay: Inhibition of RhoGEF in mouse NIH/3T3 cells assessed as inhibition of 10% calf serum-induced RhoA-GTP formation by measuring relative RhoA-GTP level at 2.5 uM in presence of 2.5 uM Rhosin/G04 incubated for 24 hrs by densitometry (reference value: 1); type: cell-based
[2] = target: RhoGEF 1/Transforming protein RhoA (Homo sapiens) (UniProt P61586+Q92888); assay: Binding affinity to human LARG (765 to 1138 residues) DH-PH module expressed in mouse NIH/3T3 cells assessed as reduction in LARG binding to human full length RhoA (1 to 193 residues) by measuring relative LARG binding level at 5 uM pull-down assay (reference value: 1 No unit); type: cell-based
Mus musculus [3] = species: Mus musculus; assay: Inhibition of RhoGEF-mediated RhoA signaling in mouse NIH/3T3 cells assessed as inhibition of SDF1a-induced phospho-FAK formation at 10 to 30 uM incubated for 24 hrs by densitometry; type: cell-based
[4] = target: Rho GEF 11/Transforming protein RhoA (Homo sapiens) (UniProt P61586+O15085); assay: Inhibition of FLAG-tagged human PDZ RhoGEF DH-PH module expressed in mouse NIH/3T3 cells assessed as reduction in human full length RhoA (1 to 193 residues) interaction with PDZ RhoGEF at 30 to 50 uM incubated for 1 hr by Western blot analysis based GST-RhoA pull-down assay; type: cell-based
[5] = target: Rho GTPase-activating protein 35/Transforming protein RhoA (Homo sapiens) (UniProt P61586+Q9NRY4); assay: Inhibition of human p190 expressed in mouse NIH/3T3 cells assessed as reduction in human full length RhoA (1 to 193 residues) interaction with p190 at 50 to 100 uM incubated for 1 hr by Western blot analysis based His-RhoA pull-down assay; type: cell-based

- fold change (FC) [2]: 0.73
- inhibition [4]: Active
- inhibition [5]: inactive
Structure (SMILES): Cc1cccc(COc2cccc(/C=C3\C(=O)NN(c4ccccc4)C3=O)c2)c1
- inhibition (MCF7): Active
- fold change (FC) (Mus musculus [1]): 1.26
- inhibition (Mus musculus [3]): Active
